Measured values published in patent US20210392882A1, “METHODS AND COMPOSITIONS FOR IMPROVED INSECT REPELLENCY” (Board of Trustees of Michigan State University, priority 2020, published 2021).

Tested on: mosquito sodium channel (AaNav1-1)
Test: Two-electrode voltage clamp of sodium channels expressed in Xenopus oocytes
Format: cell-based, Aedes aegypti
Settings: 20 ms step-depolarization before and after exposure; FIG. 4J
Source text: FIG. 4A-4J illustrate that pyrethrin-induced repellency is synergized by (E)-β-farnesene via activation of both AaOr31 and sodium channels. […] FIG. 4B graphically illustrates repellency elicited by pyrethrin I (P-I) and pyrethrin II (P-II) at 10^−3 dilution in Orlando (wild-type) and orco^−/− mosquitoes (n=9 cages for Orlando control from 2 batches of mosquitoes; n=10 cages for orco−/− control from 2 batches of mosquitoes, P-I: U=31, n=11 cages for Orlando; and n=12 cages for orco−/− from 3 batches of mosquitoes, P-II: U=15; n=14 cages for Orlando; and n=15 cages for orco−/− from 4 batches of mosquitoes). […] The effect of pyrethrum was measured 10 minutes after its application. Pyrethrum-induced tail currents were recorded during a 100-pulse train of 5 milliseconds step depolarizations from −120 to −10 mV with 5 milliseconds inter-pulse intervals (Du et al. (2013)). The percentage of pyrethrum-modified channels was calculated using the following equation: M=[Itail/(Eh−ENa)]/[INa/(Et−ENa)]×100; where Itail is the maximal tail current amplitude, Eh is the potential to which the membrane is repolarized, ENa is the reversal potential for sodium currents determined from the current-voltage curve, INa is the amplitude of the peak current during depolarization before pyrethrum exposure, and Et is the potential of the step depolarization. […]

CC1(C)C2CCC1(C)C(O)C2 (single isomer, unassigned; (-)) [(−)-borneol]
effect on peak current and channel gating: no effects
